Earlier results, collected in US5723589A, “Carbohydrate conjugated bio-active compounds” (ICN Pharmaceuticals, priority 1995, dated 1998).

Assays:
[1] = tested on: GLUT-1 in normal 3T3 fibroblasts; details: Endocrinology 1990, 126, 2778; cited from earlier work
GLUT-1 in cancer cells = details: inhibition of GLUT-1 functioning by binding; cited from earlier work
blood brain barrier = details: concentrated solutions infused into the carotid arteries; cited from earlier work

Molecule: Sodium vanadate
- GLUT-1 expression [1]: able to induce GLUT-1 expression
- extension of the half-life of GLUT-1 mRNA [1]: 2-3 times

Molecule: Cc1ccc(C(=O)Nc2ccc(S(=O)(=O)O)c3cc(S(=O)(=O)O)cc(S(=O)(=O)O)c23)cc1NC(=O)c1cccc(NC(=O)Nc2cccc(C(=O)Nc3cc(C(=O)Nc4ccc(S(=O)(=O)O)c5cc(S(=O)(=O)O)cc(S(=O)(=O)O)c45)ccc3C)c2)c1 [suramin]
- glucose uptake and growth rate of the treated cells (GLUT-1 in cancer cells): significantly limits glucose uptake and the growth rate of the treated cells

Molecule: OC[C@@H](O)[C@@H](O)[C@H](O)[C@H](O)CO [mannitol]
- disruption of the blood brain barrier (blood brain barrier): disrupt the blood brain barrier long enough to allow methotrexate and other potent chemotherapeutic agents to penetrate brain tumors
